# Measurements taken from US10500226B2, “Alginate compositions and uses thereof” (Hadasit Medical Research Services and Development Ltd., priority 2012, dated 2019).
# Tested on: serum ALT (alanine aminotransferase)
# Assay: Concanavalin A mouse model: serum ALT
# Type: in vivo, C57BL/6 (B6) mice
# Text: Injection of the T-cell mitogenic plant lectin concanavalin A (Con A) to non-sensitized mice results in hepatic apoptosis that precedes necrosis. The concanvalin A (Con A) model is a widely utilized mouse model, which mimics many aspects of human autoimmune hepatitis. It induces a massive liver necrosis in mice, simultaneously with lymphocyte infiltration into the liver, high levels of apoptotic hepatocytes and elevated serum alanine aminotransferase (ALT) and aspartate aminotransferase (AST). The liver injury is mediated by natural killer T (NKT) cells. Several apoptosis-related effector molecules, IFN-γ and TNF-α take part in the NKT cell-mediated liver injury. The immune-mediated liver injury which develops in the Con A model is very rapid, taking less than 48 hours. The peak for liver enzymes and pro-inflammtory cytokines is after less than 15 hours, making the model particularly useful for screening anti-inflammatory agents.
# Tested solutions were administered intraperitoneally by injection of a volume of 200 μl per mouse or by administration per os of 250 μl per mouse, 1 hour before concanavalin A (Con A) administration. Saline (0.15 M NaCl) served as a negative control test solution.
# Con A was dissolved at a concentration of 16 mg/kg in 200 μl of 50 mM Tris (pH 7), with 150 mM NaCl, and 4 mM CaCl2, and injected (at a dose of 0.4 mg/mouse) intravenously into the tail vein of mice. Sera from individual mice were obtained 6, 24 and 48 hours (14 hours in some experiments) after Con A injection. All mice were sacrificed after 48 hours (14 hours in some experiments).
# Serum albumin levels after 48 hours were measured by an automatic analyzer.
# The solutions were administered intraperitoneally to adult male C57BL mice at a dose of 200 μl per mouse. One hour later, the mice were challenged with an intravenous injection of concanavalin A (Con A), as described hereinabove. […] Each treatment group contained 4-5 mice. Serum levels of ALT, albumin, and the pro-inflammatory cytokines IL-6 and interferon-γ (IFNγ) were determined as described hereinabove.
structure (smiles),measurement,setting,value
C[C@@H]1C[C@H]2[C@@H]3CCC4=CC(=O)C=C[C@]4(C)[C@@]3(F)[C@@H](O)C[C@]2(C)[C@@]1(O)C(=O)CO [Dexamethasone],serum ALT levels,"2% solutions i.p., 14 hours after Con A administration",203±14 units/liter
same,Serum levels of ALT,"Table 3, 200 μl i.p. 1 hour before Con A (dexamethasone per os), 6 hours after Con A",146 ± 50 units/liter
same,Serum levels of ALT,"Table 3, 200 μl i.p. 1 hour before Con A (dexamethasone per os), 24 hours after Con A",162 ± 50 units/liter
same,Serum levels of ALT,"Table 3, 200 μl i.p. 1 hour before Con A (dexamethasone per os), 48 hours after Con A",69 ± 19 units/liter
same,Serum levels of ALT,"Table 4 (hyaluronan comparison), i.p. before Con A, 6 hours after Con A",83 ± 21 units/liter
same,Serum levels of ALT,"Table 4 (hyaluronan comparison), i.p. before Con A, 24 hours after Con A",68 ± 4 units/liter
same,Serum levels of ALT,"Table 4 (hyaluronan comparison), i.p. before Con A, 48 hours after Con A",76 ± 23 units/liter
same,Serum levels of ALT,"Table 5 (biotinylated alginate, 2%), before Con A, 6 hours after Con A",74 ± 5 units/liter
same,Serum levels of ALT,"Table 5 (biotinylated alginate, 2%), before Con A, 24 hours after Con A",62 ± 14 units/liter
same,Serum levels of ALT,"Table 5 (biotinylated alginate, 2%), before Con A, 48 hours after Con A",65 ± 16 units/liter
same,Serum levels of ALT,"Table 6 (γ-irradiated alginate comparison), 6 hours after Con A",28 ± 10 units/liter
same,Serum levels of ALT,"Table 6 (γ-irradiated alginate comparison), 24 hours after Con A",126 ± 37 units/liter
same,Serum levels of ALT,"Table 6 (γ-irradiated alginate comparison), 48 hours after Con A",68 ± 7 units/liter
same,Serum levels of ALT,"Table 7, per os 250 μl 1 hour before Con A, 6 hours after Con A",46 ± 6 units/liter
same,Serum levels of ALT,"Table 7, per os 250 μl 1 hour before Con A, 24 hours after Con A",65 ± 10 units/liter
same,Serum levels of ALT,"Table 7, per os 250 μl 1 hour before Con A, 48 hours after Con A",139 ± 26 units/liter
same,Serum levels of ALT,"Table 8, per os, repeat with other alginates, 6 hours after Con A",33 ± 12 units/liter
same,Serum levels of ALT,"Table 8, per os, repeat with other alginates, 24 hours after Con A",37 ± 10 units/liter
same,Serum levels of ALT,"Table 8, per os, repeat with other alginates, 48 hours after Con A",31 ± 5 units/liter
